# Test results reported in US6835382B2, “Ii peptide therapeutics to enhance antigen presentation” (University of Massachusetts, priority 1996, dated 2004).
# Non-standard residues stand in square brackets, D forms with d. hArg = N=C(N)NCCCC[C@H](N)C(=O)O; Cit = NC(=O)NCCC[C@H](N)C(=O)O; Orn = NCCC[C@H](N)C(=O)O
# Assays:
# [1] = molecular target: T1, murine E^d MHC class II allele (Mus musculus, UniProt P01904+P01915); assay: antigenic peptide prepulse assay, E^d allele (fixed APC prepulsed with HEL106-116); format: cell-based; design: The A20 and CH27 B cell lymphoma lines express H-2^d and H-2^k alleles, respectively; endogenous in cells; host or cells: A20 B cell lymphoma (mitomycin C-treated or paraformaldehyde-fixed); conditions: AE peptide 64 μM; for Activity in antigenic peptide prepulse assay, E^d (baseline without AE peptide = 1.00): Table 19, prepulse 12 μM HEL106-116
# T1 sequence (P01904 26-255): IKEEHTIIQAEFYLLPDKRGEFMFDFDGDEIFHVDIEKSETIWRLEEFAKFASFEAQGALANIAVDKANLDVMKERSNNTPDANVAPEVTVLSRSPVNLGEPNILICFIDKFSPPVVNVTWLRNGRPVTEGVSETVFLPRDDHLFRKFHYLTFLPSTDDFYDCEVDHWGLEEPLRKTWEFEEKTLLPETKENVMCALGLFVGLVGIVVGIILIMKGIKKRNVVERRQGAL
# T1 sequence (P01915 27-264 limits assumed): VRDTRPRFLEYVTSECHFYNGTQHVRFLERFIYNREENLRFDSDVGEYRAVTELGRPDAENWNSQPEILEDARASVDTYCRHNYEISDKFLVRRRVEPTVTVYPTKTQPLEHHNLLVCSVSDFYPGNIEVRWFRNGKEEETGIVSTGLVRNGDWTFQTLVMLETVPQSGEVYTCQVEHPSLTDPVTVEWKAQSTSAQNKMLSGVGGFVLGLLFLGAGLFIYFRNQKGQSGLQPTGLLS
# Experimental: (§1) In a second type of assay, the “peptide prepulse assay”, the antigenic peptide is incubated with paraformaldehyde-fixed APC for 6 h. The APC are washed and incubated for 24 h with the AE101 series homolog and the T cell hybridoma specific for the antigenic peptide. After that incubation, an aliquot of the culture supernatant is transferred to a second culture to measure the relative degree of T hybridoma stimulation, as reflected in the effect of released interleukins on the growth of an interleukin-dependent, indicator cell line, as described above.
# (§2) The two above described assays measure different aspects of the molecular mechanism of the AE101 series of peptides. In the “simultaneous assay”, AE101 series peptides are thought to induce the release of endogenously bound peptides and to permit the binding of the second, specific antigenic peptide which is relatively abundant in the culture fluid. The AE101 series peptides enhance antigenic peptide-specific T cell responses in simultaneous assays. In the “peptide prepulse” assay, the specific antigenic peptide becomes bound to MHC class II molecules on the surface of the fixed APC during the 6 h prepulse incubation. The effect of the AE101 series homologs is then thought to release that antigenic peptide, resulting in an apparent suppression of the immune response.
# (§3) The AE101 series peptides are thought to contact the MHC class II molecules at a discrete site outside the antigenic peptide-binding groove. AE101 peptide binding to this “Ii-KEY” site is thought to induce a conformational change in the MHC class II molecules accelerating the dissociation of previously bound antigenic peptide. […] The AE101 series peptides thus inhibit antigenic peptide-specific T cell responses in the “peptide prepulse” assays.
# (§4) Antigenic peptide-specific T cell activation was measured by the following procedure. Mitomycin C-treated A20 cells (A^dE^d) or CH27 cells APC (A^kE^k) were generated by incubating 5×10^6 cells/mL for 20 min at 37° C. with 0.025 mg/mL of mitomycin C (Sigma) in Dulbecco's Modified Eaglel's Medium (DMEM)/10 mM N-2(hydroxyethylpiperazine-N″[2-ethanesulfonic acid] (HEPES), followed by two washes with four volumes of DMEM-5% fetal calf serum (FCS), 10 mM HEPES. Fixed APC were generated by treating 1×10^6 cells/mL for 5 min with 0.5% paraformaldehyde in PBS (pH 7.2), followed by two washes with four volumes of DMEM-10% FCS, 10 mM HEPES. T cell hybridomas were irradiated 2200 rads before each assay.
# (§5) The “peptide prepulse assay” was carried out under essentially the same conditions as described for the “simultaneous assay” with the following modifications. Fixed APC were first incubated for 6 h at 1×10^6 cells/mL in complete DMEM-5% FCS in 24-well microculture plates (1 mL/well) with antigenic peptide, followed by four washes with 10 volumes of DMEM-5% FCS. The cells were then exposed to varying concentrations of AE101 series peptide (64 μM, 16 μM, 4 μM, and 1 μM) for 24 h in the presence of the T cell hybridoma specific to the antigenic peptide. Interleukin release from these cultures was measured by proliferation of HT-2 cells to interleukins in supernatants transferred from the primary culture. Generally, a single dose of 64 μM of each AE101 series peptide was used. The baseline T cell response was measured by culturing T hybridoma cells with the antigenic peptide-prepulsed APC in the absence of AE101 series peptides.
# […] […] Paraformaldehyde-treated APC (fixed APC) expressing MHC class II molecules were incubated with antigenic peptide for 6 h (HEL106-116 for E^d and PGCC81-104 for E^k). After this incubation, the prepulsed APC were washed and cultured with T hybridoma cells and AE101 series peptides. […] The AE101 series peptide concentrations were 64 μM for E^d and 16 μM for E^k. The dilutions of supernatant taken into the HT-2 cell assay were 1:4 for Ed and 1:2 for E^k.
# [2] = test system: murine E^k MHC class II allele; assay: antigenic peptide prepulse assay, E^k allele (fixed APC prepulsed with PGCC81-104); format: cell-based; conditions: for Activity in antigenic peptide prepulse assay, E^k (baseline without AE peptide = 1.00): Table 19, prepulse 20 μM PGCC81-104
# Experimental: as §1, §2, §3, §4, §5
# Table 19: Activities of C-terminal truncation analogs of AE101 in an antigenic peptide prepulse assay. […] Paraformaldehyde-treated APC (fixed APC) expressing MHC class II molecules were incubated with antigenic peptide for 6 h (HEL106-116 for E^d and PGCC81-104 for E^k). After this incubation, the prepulsed APC were washed and cultured with T hybridoma cells and AE101 series peptides. The antigenic peptide concentration during the prepulse was 12 μM for Ed and 20 μM for E^k. The AE101 series peptide concentrations were 64 μM for E^d and 16 μM for E^k. […]
# [3] = Table 20, prepulse 3 μM antigenic peptide, supernatant 1:2
# [4] = Table 20, AE peptide 16 μM, prepulse 20 μM antigenic peptide, supernatant 1:2
# [5] = AE peptide 16 μM, supernatant 1:2
# [6] = Table 21, prepulse 24 μM antigenic peptide, supernatant 1:8
# [7] = Table 21, AE peptide 16 μM, prepulse 20 μM antigenic peptide, supernatant 1:2
substance,measurement,setting,value
Ac-YAMKLPKSAK-NH2 [AE121],"Activity in antigenic peptide prepulse assay, E^d (baseline = 1.00)",[1]; [3],0.53
same,"Activity in antigenic peptide prepulse assay, E^k (baseline = 1.00)",[2]; [4],0.59
Ac-YRM-NH2 [AE118],"Activity in antigenic peptide prepulse assay, E^d (baseline without AE peptide = 1.00)",[1]; supernatant 1:4,0.68
same,"Activity in antigenic peptide prepulse assay, E^k (baseline without AE peptide = 1.00)",[2]; [5],0.35
Ac-YRMK-NH2 [AE117],"Activity in antigenic peptide prepulse assay, E^d (baseline without AE peptide = 1.00)",[1]; supernatant 1:4,0.65
same,"Activity in antigenic peptide prepulse assay, E^k (baseline without AE peptide = 1.00)",[2]; [5],0.09
Ac-YRMKL hydrP KSAK-NH2 (Ac-YRMKL[hydrP]KSAK-NH2) [AE143],"Activity in antigenic peptide prepulse assay, E^d (baseline = 1.00)",[1]; [6],0.18
same,"Activity in antigenic peptide prepulse assay, E^k (baseline = 1.00)",[2]; [7],0.10
Ac-YRMKL-NH2 [AE116],"Activity in antigenic peptide prepulse assay, E^d (baseline without AE peptide = 1.00)",[1]; supernatant 1:4,0.80
same,"Activity in antigenic peptide prepulse assay, E^k (baseline without AE peptide = 1.00)",[2]; [5],0.10
Ac-YRMKLP-NH2 [AE115],"Activity in antigenic peptide prepulse assay, E^d (baseline without AE peptide = 1.00)",[1]; supernatant 1:4,0.49
same,"Activity in antigenic peptide prepulse assay, E^k (baseline without AE peptide = 1.00)",[2]; [5],0.07
Ac-YRMKLPK-NH2 [AE113],"Activity in antigenic peptide prepulse assay, E^d (baseline without AE peptide = 1.00)",[1]; supernatant 1:4,0.10
same,"Activity in antigenic peptide prepulse assay, E^k (baseline without AE peptide = 1.00)",[2]; [5],0.04
Ac-YRMKLPKSAK-NH2 [AE109],"Activity in antigenic peptide prepulse assay, E^d (baseline without AE peptide = 1.00)",[1]; supernatant 1:4,0.11
same,"Activity in antigenic peptide prepulse assay, E^d (baseline = 1.00)",[1]; [3],0.28
same,"Activity in antigenic peptide prepulse assay, E^d (baseline = 1.00)",[1]; [6],0.10
same,"Activity in antigenic peptide prepulse assay, E^k (baseline without AE peptide = 1.00)",[2]; [5],0.07
same,"Activity in antigenic peptide prepulse assay, E^k (baseline = 1.00)",[2]; [4],0.28
same,"Activity in antigenic peptide prepulse assay, E^k (baseline = 1.00)",[2]; [7],0.07
Ac-Y[Cit]MKLPKSAK-NH2 [AE131],"Activity in antigenic peptide prepulse assay, E^d (baseline = 1.00)",[1]; [3],0.69
same,"Activity in antigenic peptide prepulse assay, E^d (baseline = 1.00)","[1]; Table 25, prepulse 24 μM antigenic peptide, supernatant 1:4",0.61
same,"Activity in antigenic peptide prepulse assay, E^k (baseline = 1.00)",[2]; [4],0.71
same,"Activity in antigenic peptide prepulse assay, E^k (baseline = 1.00)","[2]; Table 25, AE peptide 64 μM, prepulse 2.5 μM antigenic peptide, supernatant 1:10",0.98
Ac-Y[Orn]MKLPKSAK-NH2 [AE130],"Activity in antigenic peptide prepulse assay, E^d (baseline = 1.00)",[1]; [3],0.79
same,"Activity in antigenic peptide prepulse assay, E^k (baseline = 1.00)",[2]; [4],0.66
Ac-Y[hArg]MKLPKSAK-NH2 [AE132],"Activity in antigenic peptide prepulse assay, E^d (baseline = 1.00)",[1]; [3],0.58
same,"Activity in antigenic peptide prepulse assay, E^d (baseline = 1.0)","[1]; Table 26, prepulse 24 μM antigenic peptide, supernatant 1:2",0.82
same,"Activity in antigenic peptide prepulse assay, E^k (baseline = 1.00)",[2]; [4],0.1
same,"Activity in antigenic peptide prepulse assay, E^k (baseline = 1.0)","[2]; Table 26, AE peptide 64 μM, prepulse 1.25 μM antigenic peptide, supernatant 1:8",0.89
Ac-l RMKLPK-NH2 [AE160],"Activity in antigenic peptide prepulse assay, E^d (baseline = 1.00)","[1]; Table 22, prepulse 6 μM antigenic peptide, supernatant 1:8",0.40
same,"Activity in antigenic peptide prepulse assay, E^k (baseline = 1.00)","[2]; Table 22, AE peptide 16 μM, prepulse 20 μM antigenic peptide, supernatant 1:2",0.47
YRMKLPKSAKPVSQMR [AE101],"Activity in antigenic peptide prepulse assay, E^d (baseline = 1.00)",[1]; [3],0.25
same,"Activity in antigenic peptide prepulse assay, E^k (baseline = 1.00)",[2]; [4],0.89
